Results as given in ChEMBL document CHEMBL5465560, “Selectivity Literature for EUbOPEN Chemogenomic Library” (2024).

Assays:
[1] = biological target: T1, Protein arginine N-methyltransferase 9 (Homo sapiens) (UniProt Q6P2P2); conditions: at 1 µM
T1 sequence (whole entry): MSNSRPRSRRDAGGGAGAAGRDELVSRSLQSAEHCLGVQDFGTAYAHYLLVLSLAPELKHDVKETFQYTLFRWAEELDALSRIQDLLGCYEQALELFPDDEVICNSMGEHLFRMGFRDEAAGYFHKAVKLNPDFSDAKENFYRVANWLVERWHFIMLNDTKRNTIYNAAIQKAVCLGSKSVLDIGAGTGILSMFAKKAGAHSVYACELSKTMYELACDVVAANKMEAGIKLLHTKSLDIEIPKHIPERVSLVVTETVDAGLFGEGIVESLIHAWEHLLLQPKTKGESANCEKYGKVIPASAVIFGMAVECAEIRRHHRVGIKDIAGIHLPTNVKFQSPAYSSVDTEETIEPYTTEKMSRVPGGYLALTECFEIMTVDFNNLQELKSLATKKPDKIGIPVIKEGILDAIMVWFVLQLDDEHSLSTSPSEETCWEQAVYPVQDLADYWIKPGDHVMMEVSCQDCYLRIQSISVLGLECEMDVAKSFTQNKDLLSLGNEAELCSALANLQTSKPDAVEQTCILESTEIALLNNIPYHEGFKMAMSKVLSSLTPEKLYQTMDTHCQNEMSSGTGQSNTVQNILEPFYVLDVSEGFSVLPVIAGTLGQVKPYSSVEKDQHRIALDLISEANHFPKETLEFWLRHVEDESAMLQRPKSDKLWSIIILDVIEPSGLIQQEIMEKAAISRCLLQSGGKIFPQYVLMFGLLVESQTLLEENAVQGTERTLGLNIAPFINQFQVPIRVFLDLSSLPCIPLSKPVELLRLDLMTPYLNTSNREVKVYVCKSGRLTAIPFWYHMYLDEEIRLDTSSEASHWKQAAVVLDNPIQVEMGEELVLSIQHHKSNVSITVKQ

[2] = biological target: T2, Histone-lysine N-methyltransferase SETD7 (Homo sapiens) (UniProt Q8WTS6); assay: Selectivity interaction (Transferase panel (protein, RNA, and DNA methyltransferases. and EP300 (acetyltransferase))) EUB0000270b SETD7
T2 sequence (whole entry): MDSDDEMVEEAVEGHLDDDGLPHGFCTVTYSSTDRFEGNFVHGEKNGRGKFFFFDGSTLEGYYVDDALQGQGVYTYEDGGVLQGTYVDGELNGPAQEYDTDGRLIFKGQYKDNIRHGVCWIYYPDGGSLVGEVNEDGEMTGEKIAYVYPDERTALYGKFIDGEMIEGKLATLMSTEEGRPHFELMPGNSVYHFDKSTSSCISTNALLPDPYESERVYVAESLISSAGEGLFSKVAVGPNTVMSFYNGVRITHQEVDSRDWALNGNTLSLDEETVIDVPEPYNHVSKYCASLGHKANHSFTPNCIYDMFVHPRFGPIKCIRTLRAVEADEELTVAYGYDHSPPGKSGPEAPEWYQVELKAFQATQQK

[3] = biological target: Death-associated protein kinase 1 (Homo sapiens, UniProt P53355); assay: Selectivity interaction (Ambit KINOMEscan and KiNATiv profiling in Jurkat cells) EUB0000090b DAPK1; type: cell-based; conditions: at 1 µM
Chain of Death-associated protein kinase 1 (P53355 whole entry, looked up): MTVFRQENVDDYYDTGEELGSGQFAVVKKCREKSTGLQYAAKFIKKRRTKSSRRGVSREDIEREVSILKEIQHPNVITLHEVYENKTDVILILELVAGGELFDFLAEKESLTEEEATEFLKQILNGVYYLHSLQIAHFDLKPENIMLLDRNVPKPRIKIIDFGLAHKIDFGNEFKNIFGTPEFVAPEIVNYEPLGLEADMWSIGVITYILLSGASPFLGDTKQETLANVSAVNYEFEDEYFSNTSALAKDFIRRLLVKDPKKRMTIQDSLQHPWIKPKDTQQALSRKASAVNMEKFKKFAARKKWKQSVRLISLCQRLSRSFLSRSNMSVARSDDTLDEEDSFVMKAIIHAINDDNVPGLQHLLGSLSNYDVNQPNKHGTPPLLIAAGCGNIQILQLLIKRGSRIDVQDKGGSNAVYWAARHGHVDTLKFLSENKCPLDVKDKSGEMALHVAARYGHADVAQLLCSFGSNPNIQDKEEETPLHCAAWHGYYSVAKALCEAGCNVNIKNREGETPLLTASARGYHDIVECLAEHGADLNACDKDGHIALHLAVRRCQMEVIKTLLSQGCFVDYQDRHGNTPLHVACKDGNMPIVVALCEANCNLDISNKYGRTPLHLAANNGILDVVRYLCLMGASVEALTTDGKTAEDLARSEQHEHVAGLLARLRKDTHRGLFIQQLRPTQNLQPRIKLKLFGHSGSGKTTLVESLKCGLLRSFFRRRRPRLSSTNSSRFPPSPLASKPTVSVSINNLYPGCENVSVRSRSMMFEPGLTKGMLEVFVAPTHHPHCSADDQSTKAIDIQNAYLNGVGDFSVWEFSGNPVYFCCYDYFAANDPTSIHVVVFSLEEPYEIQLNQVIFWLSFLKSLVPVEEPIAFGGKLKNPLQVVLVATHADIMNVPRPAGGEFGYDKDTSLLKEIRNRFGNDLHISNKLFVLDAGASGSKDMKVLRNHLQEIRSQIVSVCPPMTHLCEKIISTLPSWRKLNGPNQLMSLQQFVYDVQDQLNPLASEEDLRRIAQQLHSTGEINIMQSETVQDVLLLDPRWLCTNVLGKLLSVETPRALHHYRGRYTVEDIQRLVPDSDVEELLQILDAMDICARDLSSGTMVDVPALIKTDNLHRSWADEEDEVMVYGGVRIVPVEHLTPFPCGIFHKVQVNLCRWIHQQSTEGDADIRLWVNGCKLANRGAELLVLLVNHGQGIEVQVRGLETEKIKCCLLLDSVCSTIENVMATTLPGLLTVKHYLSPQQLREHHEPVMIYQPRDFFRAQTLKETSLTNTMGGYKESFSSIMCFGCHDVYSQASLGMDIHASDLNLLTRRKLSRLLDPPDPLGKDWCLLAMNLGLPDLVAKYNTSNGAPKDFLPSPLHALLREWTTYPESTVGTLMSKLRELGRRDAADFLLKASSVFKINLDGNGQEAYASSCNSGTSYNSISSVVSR

[4] = biological target: Rho-associated protein kinase 1 (Homo sapiens) (UniProt Q13464); conditions: at 10 µM
Chain of Rho-associated protein kinase 1 (Homo sapiens) (Q13464 2-1354 limits assumed): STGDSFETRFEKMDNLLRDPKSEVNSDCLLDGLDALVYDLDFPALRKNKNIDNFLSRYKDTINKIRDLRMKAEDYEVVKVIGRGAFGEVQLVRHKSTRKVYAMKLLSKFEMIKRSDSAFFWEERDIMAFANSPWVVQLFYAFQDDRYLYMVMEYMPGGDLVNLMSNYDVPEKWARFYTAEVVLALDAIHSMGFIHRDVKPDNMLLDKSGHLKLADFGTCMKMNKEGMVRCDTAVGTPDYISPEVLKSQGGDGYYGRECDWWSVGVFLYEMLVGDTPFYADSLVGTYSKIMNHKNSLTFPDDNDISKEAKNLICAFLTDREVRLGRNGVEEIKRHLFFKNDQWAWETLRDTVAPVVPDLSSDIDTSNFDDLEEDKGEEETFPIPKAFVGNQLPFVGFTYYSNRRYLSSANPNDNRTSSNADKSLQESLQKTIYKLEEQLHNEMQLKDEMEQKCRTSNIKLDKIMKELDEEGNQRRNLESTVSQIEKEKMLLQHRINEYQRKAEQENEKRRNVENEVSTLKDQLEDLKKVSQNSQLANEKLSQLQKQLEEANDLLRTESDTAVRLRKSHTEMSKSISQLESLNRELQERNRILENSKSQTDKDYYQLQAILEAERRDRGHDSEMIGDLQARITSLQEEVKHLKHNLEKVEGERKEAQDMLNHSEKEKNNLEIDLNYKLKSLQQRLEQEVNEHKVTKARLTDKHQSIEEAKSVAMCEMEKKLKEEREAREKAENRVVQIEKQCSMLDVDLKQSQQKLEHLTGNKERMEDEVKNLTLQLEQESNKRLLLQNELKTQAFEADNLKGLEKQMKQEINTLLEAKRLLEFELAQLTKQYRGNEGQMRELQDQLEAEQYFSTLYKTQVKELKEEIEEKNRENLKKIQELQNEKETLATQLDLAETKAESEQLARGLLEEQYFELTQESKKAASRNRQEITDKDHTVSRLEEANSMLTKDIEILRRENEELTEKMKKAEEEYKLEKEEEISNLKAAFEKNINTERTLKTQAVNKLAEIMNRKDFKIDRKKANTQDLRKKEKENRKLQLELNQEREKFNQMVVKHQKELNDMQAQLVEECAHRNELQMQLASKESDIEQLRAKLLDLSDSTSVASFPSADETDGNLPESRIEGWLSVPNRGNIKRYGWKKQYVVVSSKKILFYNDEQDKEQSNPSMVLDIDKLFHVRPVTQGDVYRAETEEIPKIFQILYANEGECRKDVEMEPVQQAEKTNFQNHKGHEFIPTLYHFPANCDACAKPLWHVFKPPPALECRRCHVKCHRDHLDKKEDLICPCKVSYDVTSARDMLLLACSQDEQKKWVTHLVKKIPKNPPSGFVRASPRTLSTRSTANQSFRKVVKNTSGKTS

[5] = biological target: T3, Serine/threonine-protein kinase Sgk1 (Homo sapiens) (UniProt O00141); assay: Selectivity interaction (KinomeScan (DiscoverX)) EUB0001619a SGK1; conditions: at 1 µM
T3 sequence (whole entry): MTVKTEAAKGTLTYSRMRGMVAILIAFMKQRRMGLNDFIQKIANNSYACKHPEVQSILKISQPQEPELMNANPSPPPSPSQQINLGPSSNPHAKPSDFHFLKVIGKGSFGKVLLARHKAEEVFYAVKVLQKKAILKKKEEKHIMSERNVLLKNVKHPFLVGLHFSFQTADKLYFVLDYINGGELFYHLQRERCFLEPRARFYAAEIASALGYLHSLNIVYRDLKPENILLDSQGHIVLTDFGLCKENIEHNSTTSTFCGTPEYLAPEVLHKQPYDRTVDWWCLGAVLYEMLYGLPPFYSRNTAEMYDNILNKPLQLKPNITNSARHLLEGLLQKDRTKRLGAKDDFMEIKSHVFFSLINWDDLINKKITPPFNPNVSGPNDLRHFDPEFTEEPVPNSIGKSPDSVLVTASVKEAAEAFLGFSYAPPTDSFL

[6] = biological target: Histone-lysine N-methyltransferase, H3 lysine-79 specific (Homo sapiens, UniProt Q8TEK3); assay: Selectivity interaction (Methyltransferase screen (radiometric assays, panel of 8 PRMTs, 21 protein lysine methyltransferases, 3 DNA methyltransferases, and one RNA methyltransferase)) EUB0000272b DOT1L
Chain of Histone-lysine N-methyltransferase, H3 lysine-79 specific (Q8TEK3 whole entry, looked up): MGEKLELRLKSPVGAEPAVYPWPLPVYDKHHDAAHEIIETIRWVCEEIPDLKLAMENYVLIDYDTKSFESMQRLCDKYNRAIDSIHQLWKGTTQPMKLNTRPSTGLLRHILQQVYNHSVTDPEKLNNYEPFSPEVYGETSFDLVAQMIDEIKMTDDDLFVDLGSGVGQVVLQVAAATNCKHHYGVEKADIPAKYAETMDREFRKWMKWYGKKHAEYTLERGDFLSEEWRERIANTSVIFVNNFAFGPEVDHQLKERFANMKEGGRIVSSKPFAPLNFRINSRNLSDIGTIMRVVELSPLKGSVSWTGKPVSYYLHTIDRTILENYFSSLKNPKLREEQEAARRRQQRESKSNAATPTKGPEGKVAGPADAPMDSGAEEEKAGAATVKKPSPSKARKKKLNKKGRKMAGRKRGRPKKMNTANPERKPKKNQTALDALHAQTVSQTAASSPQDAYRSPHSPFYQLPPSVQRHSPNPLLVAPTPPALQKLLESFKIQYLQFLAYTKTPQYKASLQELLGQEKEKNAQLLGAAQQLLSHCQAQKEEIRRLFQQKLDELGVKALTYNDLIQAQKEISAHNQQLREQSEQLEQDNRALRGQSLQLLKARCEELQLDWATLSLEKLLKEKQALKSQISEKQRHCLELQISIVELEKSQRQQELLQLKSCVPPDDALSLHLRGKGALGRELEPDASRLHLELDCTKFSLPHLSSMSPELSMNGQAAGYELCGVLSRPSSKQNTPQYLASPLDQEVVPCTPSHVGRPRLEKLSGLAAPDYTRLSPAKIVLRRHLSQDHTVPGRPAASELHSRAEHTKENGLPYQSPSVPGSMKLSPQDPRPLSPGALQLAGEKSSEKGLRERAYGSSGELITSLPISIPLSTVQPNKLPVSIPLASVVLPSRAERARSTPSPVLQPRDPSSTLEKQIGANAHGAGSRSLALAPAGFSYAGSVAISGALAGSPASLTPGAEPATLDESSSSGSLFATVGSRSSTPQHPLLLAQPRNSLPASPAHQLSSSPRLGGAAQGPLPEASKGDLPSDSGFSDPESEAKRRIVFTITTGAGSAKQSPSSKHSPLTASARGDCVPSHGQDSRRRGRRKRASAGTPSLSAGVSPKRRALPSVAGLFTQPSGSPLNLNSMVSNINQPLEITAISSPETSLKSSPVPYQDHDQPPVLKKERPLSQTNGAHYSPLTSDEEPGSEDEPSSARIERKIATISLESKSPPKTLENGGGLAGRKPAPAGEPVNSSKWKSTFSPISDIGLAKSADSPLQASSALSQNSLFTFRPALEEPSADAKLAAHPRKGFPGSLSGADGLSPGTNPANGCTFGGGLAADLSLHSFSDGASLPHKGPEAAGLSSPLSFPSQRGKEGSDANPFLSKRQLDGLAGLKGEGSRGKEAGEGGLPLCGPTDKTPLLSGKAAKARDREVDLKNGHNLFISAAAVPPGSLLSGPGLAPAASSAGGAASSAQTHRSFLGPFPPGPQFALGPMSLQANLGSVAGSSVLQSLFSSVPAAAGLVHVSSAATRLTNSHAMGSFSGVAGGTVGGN

[7] = biological target: T4, Inhibitor of nuclear factor kappa-B kinase subunit alpha (Homo sapiens) (UniProt O15111); assay: Selectivity interaction (ProQinase) EUB0000171b CHUK
T4 sequence (whole entry): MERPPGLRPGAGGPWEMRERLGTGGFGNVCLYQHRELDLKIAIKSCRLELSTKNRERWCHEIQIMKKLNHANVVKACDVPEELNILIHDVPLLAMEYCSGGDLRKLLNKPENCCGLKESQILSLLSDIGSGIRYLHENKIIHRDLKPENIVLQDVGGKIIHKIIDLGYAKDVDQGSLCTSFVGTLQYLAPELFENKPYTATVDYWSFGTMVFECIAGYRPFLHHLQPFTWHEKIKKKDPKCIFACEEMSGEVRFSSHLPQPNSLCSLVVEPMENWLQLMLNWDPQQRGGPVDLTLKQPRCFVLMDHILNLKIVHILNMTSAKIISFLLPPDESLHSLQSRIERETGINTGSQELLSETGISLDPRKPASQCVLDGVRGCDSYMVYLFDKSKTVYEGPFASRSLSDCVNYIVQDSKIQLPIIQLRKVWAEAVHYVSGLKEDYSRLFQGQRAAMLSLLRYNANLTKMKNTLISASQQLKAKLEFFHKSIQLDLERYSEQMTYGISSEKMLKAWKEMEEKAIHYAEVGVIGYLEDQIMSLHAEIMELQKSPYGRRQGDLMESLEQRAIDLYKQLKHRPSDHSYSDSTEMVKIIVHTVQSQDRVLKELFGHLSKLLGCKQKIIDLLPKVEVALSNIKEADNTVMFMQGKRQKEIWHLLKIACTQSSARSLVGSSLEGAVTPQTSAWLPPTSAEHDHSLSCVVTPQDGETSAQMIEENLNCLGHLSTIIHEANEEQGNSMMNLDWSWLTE

CNCCN1CCC(c2cc(CN(C)C(=O)c3cccc(Oc4ccccc4)c3)ccn2)CC1
% activity [1]: > 90%

Cc1cc(CN)cc(C)c1-c1ncn(C)c1-c1cncn1C
% activity ([2]; at 1 µM): > 90% | % activity ([2]; at 10 µM): > 80%

CN(C)C/C=C/C(=O)Nc1ccc(C(=O)N2CCCC(Nc3ncc(Cl)c(-c4c[nH]c5ccccc45)n3)C2)cc1 (stereo not given)
% of control [3]: 80%

Cc1cc([C@@H](C)Nc2ccccc2C(=O)O)c2nc(N3CCOCC3)cc(=O)n2c1 [AZD-6482]
% of control [4]: 73%

N#Cc1cccc(-c2c[nH]c3ncnc(N4CCOCC4)c23)c1
% of control [5]: 65%

Cc1cc(C)cc([C@H]2c3cc(C)ccc3NC(=O)CN2C(=O)c2ccc(Br)s2)c1
% of activity ([6]; at 1 µM): 100% | % of activity ([6]; at 10 µM): 94.3%

C=CC(=O)Nc1cccc(C(=O)Nc2ccc(Nc3cc(-c4[nH]c(SC)nc4C)ccn3)cc2)c1
% of control ([7]; at 1 µM): 78% | % of control ([7]; at 5 µM): 57%
